Patent publication US20010055569A1, “Nasal drug delivery composition” (West Pharmaceutical Services Drug Delivery & Clinical …, priority 1998, published 2001)
≈ marks a conversion by molar mass, not a printed value. Like-named read-outs stand apart in the source and are kept apart here.

Assay: Solubility of drugs in vegetable oils (castor oil, soybean oil)
Details: for solubility: oil or lipid, thermodynamic from solid
Procedure: The solubility of flurbiprofen in different vegetable oils was measured by the addition of increasing quantities of the drug to an oil system and determination of the maximum amount that will dissolve by observation of the resultant solution and the onset of a cloudy nature or precipitation.

Structure (SMILES): CN1CCc2cccc3c2[C@H]1Cc1ccc(O)c(O)c1-3 [Apomorphine]
- Solubility in soybean oil (room temperature, soybean oil): <10 mg/g

Structure (SMILES): COc1ccc2c(c1)c(CC(=O)O)c(C)n2C(=O)c1ccc(Cl)cc1 [Indomethacin]
- Solubility in castor oil: >15 < 20 mg/g
- Solubility in soybean oil: <5 mg/g

Structure (SMILES): CC(C(=O)O)c1ccc(-c2ccccc2)c(F)c1 (centres unmarked) [flurbiprofen]
- solubility (castor oil BP): 150 mg/mL (≈ 614 mM)
- solubility (soybean oil BP): < 50 mg/mL
